Laboratory results from patent US7951951B2, “Bicyclic enamino(thio)carbonyl compounds” (Bayer Cropscience AG, priority 2006, dated 2011).

What was measured:
Type in all cases: in vivo
[1] = system: green peach aphid (Myzus persicae); test: Myzus test (MYZUPE spray treatment); conditions: spray on infested Chinese cabbage discs; for pest or weed control at 500 g/ha: Myzus persicae, in Brassica rapa, 120 h, after 5 days, read-out: Kill rate in % after 5 days; for Kill rate in % after 5 days: 500 g/ha
Experimental: Myzus Test (MYZUPE Spray Treatment)
(§1) Solvents: 78 parts by weight of acetone • • 1.5 parts by weight of dimethylformamide
(§2) Emulsifier: 0.5 part by weight of alkylaryl polyglycol ether
(§3) To produce a suitable preparation of active compound, 1 part by weight of active compound is mixed with the stated amounts of solvents and emulsifier, and the concentrate is diluted with emulsifier-containing water to the desired concentration.
Discs of Chinese cabbage (Brassica pekinensis) which are infested by all stages of the green peach aphid (Myzus persicae) are sprayed with a preparation of active compound of the desired concentration.
(§4) After the desired period of time, the effect in % is determined. 100% means that all aphids have been killed; 0% means that none of the aphids have been killed.
On this test, for example, the following compounds of the Preparation Examples show good activity: see table

[2] = system: larvae of the mustard beetle (Phaedon cochleariae); test: Phaedon cochleariae test (PHAECO spray treatment); conditions: 500 g/ha, sprayed Chinese cabbage discs
Experimental: Phaedon cochleariae Test (PHAECO Spray Treatment)
as §1, §2, §3
After the desired period of time, the effect in % is determined. 100% means that all beetle larvae have been killed; 0% means that none of the beetle larvae have been killed.
(§5) In this test, for example, the following compounds of the Preparation Examples show good activity: see table

[3] = system: green peach aphid (Myzus persicae); test: Myzus test; oral (MYZUPE O); conditions: 100 ppm, oral (sucking at the preparation)
Experimental: Myzus Test; Oral; (MYZUPE O)
Solvent: 80 parts by weight of acetone
To produce a suitable preparation of active compound, 1 part by weight of active compound is mixed with the stated amounts of solvent and emulsifier, and the concentrate is diluted with water to the desired concentration.
Containers are populated with all stages of the green peach aphid (Myzus persicae), the treatment is by sucking at the preparation of active compound of the desired concentration.
as §4, §5

[4] = system: green peach aphid (Myzus persicae); test: Myzus persicae test, hydroponic treatment (MYZUPE sys.); conditions: 20 ppm, hydroponic treatment of pea plant
Experimental: Myzus persicae Test, Hydroponic Treatment (MYZUPE sys.)
(§6) Solvent: 7 parts by weight of dimethylformamide
(§7) Emulsifier: 2 parts by weight of alkylaryl polyglycol ether
(§8) To produce a suitable preparation of active compound, 1 part by weight of active compound is mixed with the stated amounts of solvent and emulsifier, and the concentrate is diluted with emulsifier-containing water to the desired concentration.
The preparation of active compound is mixed with water. The stated concentration refers to the amount of active compound per volume unit of […] (mg/l=ppm). The treated water is filled into containers housing a pea plant (Pisum sativum) which is then infected with the green peach aphid (Myzus persicae).
(§9) After the desired period of time, the kill in % is determined. 100% means that all aphids have been killed; 0% means that none of the aphids have been killed.
(§10) In this test, for example, the following compounds of the Preparation Examples show good activity: see table.

[5] = system: cotton aphid (Aphis gossypii); test: Aphis gossypii test (APHIGO), leaf dipping; conditions: cotton leaves dipped
Experimental: (§11) Aphis gossypii Test (APHIGO)
Solvent: 7 parts by weight of dimethylformrnamide
as §7, §8
Cotton leaves (Gossypium hirsutum) which are heavily infested by the cotton aphid (Aphis gossypii) are treated by being dipped into the preparation of active compound of the desired concentration.
as §9, §10

[6] = system: greenhouse red spider mite (Tetranychus urticae); test: Tetranychus test, OP-resistant (TETRUR spray treatment); conditions: 500 g/ha, sprayed bean leaf discs
Experimental: Tetranychus Test, OP-Resistant (TETRUR Spray Treatment)
as §1, §2, §3
Discs of bean leaves (Phaseolus vulgaris) which are infested by all stages of the greenhouse red spider mite (Tetranychus urticae) are sprayed with a preparation of active compound of the desired concentration.
After the desired period of time, the effect in % is determined. 100% means that all spider mites have been killed; 0% means that none of the spider mites have been killed.
as §10

[7] = system: caterpillars of the armyworm (Spodoptera frugiperda); test: Spodoptera frugiperda test (SPODFR spray treatment); conditions: 500 g/ha, sprayed maize leaf discs
Experimental: Spodoptera frugiperda Test (SPODFR Spray Treatment)
as §1, §2, §3
Discs of maize leaves (Zea mays) are sprayed with a preparation of active compound of the desired concentration and, after drying, populated with caterpillars of the armyworm (Spodoptera frugiperda).
After the desired period of time, the effect in % is determined. 100% means that all caterpillars have been killed; 0% means that none of the caterpillars have been killed.
as §5

Lucilia cuprina larvae = test: Lucilia cuprina test (LUCICU); conditions: 100 ppm, treated horse meat
Experimental: Lucilia cuprina Test (LUCICU)
Solvent: dimethyl sulphoxide
To produce a suitable preparation of active compound, 1 part by weight of active compound is mixed with the stated amount of water and the concentrate is diluted with water to the desired concentration.
Containers containing horse meat treated with the preparation of active compound of the desired concentration are populated with Lucilia cuprina larvae.
After the desired period of time, the kill in % is determined. 100% means that all larvae have been killed; 0% means that none of the larvae have been killed.
as §10

[8] = system: cotton aphid (Aphis gossypii); test: Aphis gossypii test (APHIGO), spraying; conditions: 12 g/ha, cotton leaves sprayed
Experimental: as §11, §6
Emulsifier: 1 part by weight of alkylaryl polyglycol ether
as §8
Cotton leaves (Gossypium hirsutum) which are heavily infested by the cotton aphid (Aphis gossypii) are treated by spraying with the preparation of active compound at the stated concentration.
After the desired period of time, the kill in % is determined. 100% means that all animals have been killed; 0% means that none of the animals have been killed.
as §5

## O=C1C=C2C(CC=CN2Cc2ccc(Cl)nc2)O1 (stereo not shown) [Example I-18, 4-[(6-Chloropyridin-3-yl)methyl]-7,7a-dihydrofuro[3,2-b]pyridin-2(4H)-one]
[1]
  pest or weed control at 500 g/ha: 100%

## O=C1C=C2C(=CCCN2Cc2ccc(Cl)nc2)O1 [Example I-20, 4-[(6-Chloropyridin-3-yl)methyl]-5,6-dihydrofuro[3,2-b]pyridin-2(4H)-one]
[1]
  pest or weed control at 500 g/ha: 100%
[2]
  Kill rate in % after 7 days: 100%

## CC1CC2OC(=O)C=C2N(Cc2ccc(Cl)nc2)C1 (single isomer, unassigned) [Example I-12a, 4-[(6-Chloropyridin-3-yl)methyl]-6-methyl-5,6,7,7a-tetrahydrofuro[3,2-b]-pyridin-2(4H)-on]
[1]
  pest or weed control at 500 g/ha: 100%
[3]
  Kill rate in % after 5 days: 100%

## O=C1C=C2C(CC(Cl)CN2Cc2ccc(Cl)nc2)O1 (single isomer, unassigned) [Example I-17a, 4-[(6-Chloropyridin-3-yl)methyl]-6-chloro-5,6,7,7a-tetrahydrofuro[3,2-b]-pyridin-2(4H)-one]
[1]
  pest or weed control at 500 g/ha: 100%
[2]
  Kill rate in % after 7 days: 100%

## O=C1C=C2C(CC(F)(F)CN2Cc2ccc(Cl)nc2)O1 (stereo not shown) [Example I-15]
[1]
  pest or weed control at 500 g/ha: 100%

## O=C1C=C2C(O1)C(O)CCN2Cc1ccc(Cl)nc1 (stereo not shown) [Example I-19]
[1]
  pest or weed control at 500 g/ha: 100%

## O=C1C=C2C(OCCN2Cc2ccc(Cl)nc2)O1 (stereo not shown) [Example I-1, 1-[(6-Chloropyridin-3-yl)methyl]-2,3-dihydro-1H-furo[2,3-b][1,4]oxazin-6(4aH)-one]
[1]
  pest or weed control at 500 g/ha: 100%
[3]
  Kill rate in % after 5 days: 100%

## O=C1OC2COCN(Cc3ccc(Cl)nc3)C2=C1Cl (stereo not shown) [Example I-8]
[1]
  pest or weed control at 500 g/ha: 100%

## O=CC1=C2C(CCCN2Cc2ccc(Cl)nc2)OC1=O (stereo not shown) [Example I-11, 3-Formyl-4-[(6-chloropyridin-3-yl)methyl]-5,6,7,7a-tetrahydrofuro [3,2-b]-pyridin-2(4H)-one]
[1]
  pest or weed control at 500 g/ha: 100%

## O=C1C=C2C(CCCCN2Cc2ccc(Cl)nc2)O1 (stereo not shown) [Example I-7, 4-[(6-Chloropyridin-3-yl)methyl]-4,5,6,7,8,8a-hexahydro-2H-furo[3,2-b]-azepin-2-one]
[1]
  pest or weed control at 500 g/ha: 100%
[4]
  Kill rate in % after 6 days: 100%
[5]; 100 ppm
  Kill rate in % after 6 days: 95%

## CC1CC2OC(=O)C=C2N(Cc2ccc(Cl)nc2)C1 (single isomer, unassigned) [Example I-12b, 4-[(6-Chloropyridin-3-yl)methyl]-6-methyl-5,6,7,7a-tetrahydrofuro[3,2-b]-pyridin-2(4H)-on]
[1]
  Kill rate in % after 5 days: 100%
[3]
  Kill rate in % after 5 days: 100%
[6]
  Kill rate in % after 6 days: 90%

## O=C1C=C2[C@@H](CCCN2Cc2ccc(Cl)nc2)O1 [Example I-3]
[1]
  pest or weed control at 500 g/ha: 100%
[7]
  Kill rate in % after 7 days: 100%
[2]
  Kill rate in % after 7 days: 100%

## O=C1C=C2C(CCCN2Cc2ccc(Cl)nc2)O1 (stereo not shown) [Example I-2, 4-[(6-Chloropyridin-3-yl)methyl]-5,6,7,7a-tetrahydrofuro[3,2-b]pyridin-2(4H)-one]
[1]
  pest or weed control at 500 g/ha: 100%
[7]
  Kill rate in % after 7 days: 100%
[4]
  Kill rate in % after 6 days: 100%
[5]; 20 ppm
  Kill rate in % after 6 days: 95%
Lucilia cuprina larvae
  Kill rate in % after 2 days: 100%
[8]
  Kill rate in % after 7 days: 85%

## O=C1C=C2[C@H](CCCN2Cc2ccc(Cl)nc2)O1 [Example I-4]
[1]
  pest or weed control at 500 g/ha: 100%
[2]
  Kill rate in % after 7 days: 100%

## CC12CCCN(Cc3ccc(Cl)nc3)C1=CC(=O)O2 (stereo not shown) [Example I-10, 4-[(6-Chloropyridin-3-yl]methyl]-7a-methyl-5,6,7,7a-tetrahydrofuro[3,2-b]-pyridin-2(4H)-one]
[1]
  pest or weed control at 500 g/ha: 100%

## O=C1CC2OC(=O)C=C2N(Cc2ccc(Cl)nc2)C1 (stereo not shown) [Example I-14]
[1]
  pest or weed control at 500 g/ha: 100%
[3]
  Kill rate in % after 5 days: 100%

## O=C1C=C2C(CC(Cl)CN2Cc2ccc(Cl)nc2)O1 (single isomer, unassigned) [Example I-17b, 4-[(6-Chloropyridin-3-yl)methyl]-6-chloro-5,6,7,7a-tetrahydrofuro[3,2-b]-pyridin-2(4H)-one]
[1]
  Kill rate in % after 5 days: 90%

## O=C1OC2CCCN(Cc3ccc(Cl)nc3)C2=C1Cl (stereo not shown) [Example I-9]
[1]
  pest or weed control at 500 g/ha: 100%
[4]
  Kill rate in % after 6 days: 100%
[5]; 100 ppm
  Kill rate in % after 6 days: 90%
Lucilia cuprina larvae
  Kill rate in % after 2 days: 80%

## O=C1C=C2C(CC=CCN2Cc2ccc(Cl)nc2)O1 (stereo not shown) [Example I-6, 4-[(6-Chloropyridin-3-yl)methyl]-4,5,8,8a-tetrahydro-2H-furo[3,2-b]azepin-2-one]
[1]
  pest or weed control at 500 g/ha: 100%
Lucilia cuprina larvae
  Kill rate in % after 2 days: 100%
